Results as given in PubChem BioAssay (NCI).
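At the GI50, growth is halved. TGI marks complete inhibition of growth.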

Key:
Assay in all cases: NCI anticancer screen, dose series, 384-well format
[1] = tested on: 786-0 renal
[2] = tested on: A498 renal
[3] = tested on: A549 NSCLC
[4] = tested on: BT-549 breast
[5] = tested on: CAKI-1 renal
[6] = tested on: CCRF-CEM leukemia
[7] = tested on: COLO 205 colon
[8] = tested on: DU-145 prostate
[9] = tested on: EKVX NSCLC
[10] = tested on: HCC-2998 colon
[11] = tested on: HCT-116 colon
[12] = tested on: HCT-15 colon
[13] = tested on: HL-60(TB) leukemia
[14] = tested on: HOP-62 NSCLC
[15] = tested on: HOP-92 NSCLC
[16] = tested on: HS 578T breast
[17] = tested on: HT29 colon
[18] = tested on: IGROV1 ovarian
[19] = tested on: K-562 leukemia
[20] = tested on: KM12 colon
[21] = tested on: LOX IMVI melanoma
[22] = tested on: M14 melanoma
[23] = tested on: MALME-3M melanoma
[24] = tested on: MCF7 breast
[25] = tested on: MDA-MB-231 breast
[26] = tested on: MDA-MB-435 melanoma
[27] = tested on: MDA-MB-468 breast
[28] = tested on: MOLT-4 leukemia
[29] = tested on: NCI-H226 lung
[30] = tested on: NCI-H23 lung
[31] = tested on: NCI-H322M lung
[32] = tested on: NCI-H460 NSCLC
[33] = tested on: NCI-H522 lung
[34] = tested on: NCI/ADR-RES ovarian
[35] = tested on: OVCAR-3 ovarian
[36] = tested on: OVCAR-4 ovarian
[37] = tested on: OVCAR-5 ovarian
[38] = tested on: OVCAR-8 ovarian
[39] = tested on: PC-3 prostate
[40] = tested on: RPMI-8226 leukemia
[41] = tested on: RXF 393 renal
[42] = tested on: SF-268 CNS
[43] = tested on: SF-295 CNS
[44] = tested on: SF-539 CNS
[45] = tested on: SK-MEL-2 melanoma
[46] = tested on: SK-MEL-28 melanoma
[47] = tested on: SK-MEL-5 melanoma
[48] = tested on: SK-OV-3 ovarian
[49] = tested on: SNB-19 CNS
[50] = tested on: SNB-75 CNS
[51] = tested on: SW-620 colon
[52] = tested on: T-47D breast
[53] = tested on: TK-10 renal
[54] = tested on: U251 glioblastoma
[55] = tested on: UO-31 renal
[56] = tested on: ACHN renal
[57] = tested on: SN12C renal
[58] = tested on: SR leukemia
[59] = tested on: UACC-257 melanoma
[60] = tested on: UACC-62 melanoma

Compound: COC[C@H]1Cn2cc(-c3nc(Nc4ccnn4C)ncc3C)nc2C(=O)N1Cc1ccc(F)c(F)c1
- GI50 [1]: 24.6 µM
- TGI [1]: > 100 µM
- GI50 [2]: 1.3 µM
- TGI [2]: > 100 µM
- GI50 [3]: 0.373 µM
- TGI [3]: > 100 µM
- GI50 [4]: 18.6 µM
- TGI [4]: > 100 µM
- GI50 [5]: 0.509 µM
- TGI [5]: > 100 µM
- GI50 [6]: 17.6 µM
- TGI [6]: 37.9 µM
- GI50 [7]: < 0.01 µM
- TGI [7]: 0.36 µM
- GI50 [8]: 10.4 µM
- TGI [8]: > 100 µM
- GI50 [9]: 11 µM
- TGI [9]: > 100 µM
- GI50 [10]: 0.0316 µM
- TGI [10]: 0.219 µM
- GI50 [11]: 0.0577 µM
- TGI [11]: 32.3 µM
- GI50 [12]: 24.8 µM
- TGI [12]: > 100 µM
- GI50 [13]: 0.0154 µM
- TGI [13]: 1.55 µM
- GI50 [14]: 2.02 µM
- TGI [14]: > 100 µM
- GI50 [15]: 0.389 µM
- TGI [15]: 11.6 µM
- GI50 [16]: 15.8 µM
- TGI [16]: > 100 µM
- GI50 [17]: 0.0947 µM
- TGI [17]: > 100 µM
- GI50 [18]: 0.314 µM
- TGI [18]: > 100 µM
- GI50 [19]: 1.03 µM
- TGI [19]: > 100 µM
- GI50 [20]: 0.255 µM
- TGI [20]: > 100 µM
- GI50 [21]: 0.0393 µM
- TGI [21]: 0.31 µM
- GI50 [22]: 0.0106 µM
- TGI [22]: 0.181 µM
- GI50 [23]: < 0.01 µM
- TGI [23]: 0.0237 µM
- GI50 [24]: 19.6 µM
- TGI [24]: > 100 µM
- GI50 [25]: 0.266 µM
- TGI [25]: > 100 µM
- GI50 [26]: 0.0355 µM
- TGI [26]: > 100 µM
- GI50 [27]: 14.2 µM
- TGI [27]: 52.2 µM
- GI50 [28]: 16.9 µM
- TGI [28]: 46.5 µM
- GI50 [29]: 0.612 µM
- TGI [29]: > 100 µM
- GI50 [30]: 0.0369 µM
- TGI [30]: 2.11 µM
- GI50 [31]: 0.145 µM
- TGI [31]: > 100 µM
- GI50 [32]: 2.03 µM
- TGI [32]: > 100 µM
- GI50 [33]: 1.09 µM
- TGI [33]: > 100 µM
- GI50 [34]: 93.6 µM
- TGI [34]: > 100 µM
- GI50 [35]: 43.5 µM
- TGI [35]: > 100 µM
- GI50 [36]: 61.9 µM
- TGI [36]: > 100 µM
- GI50 [37]: 0.217 µM
- TGI [37]: > 100 µM
- GI50 [38]: 71.6 µM
- TGI [38]: > 100 µM
- GI50 [39]: 38.4 µM
- TGI [39]: > 100 µM
- GI50 [40]: 0.771 µM
- TGI [40]: 2.6 µM
- GI50 [41]: 23.6 µM
- TGI [41]: > 100 µM
- GI50 [42]: 95.9 µM
- TGI [42]: > 100 µM
- GI50 [43]: > 100 µM
- TGI [43]: > 100 µM
- GI50 [44]: 18.4 µM
- TGI [44]: > 100 µM
- GI50 [45]: 0.0366 µM
- TGI [45]: 0.196 µM
- GI50 [46]: < 0.01 µM
- TGI [46]: 0.108 µM
- GI50 [47]: 0.064 µM
- TGI [47]: 35.7 µM
- GI50 [48]: 18.2 µM
- TGI [48]: > 100 µM
- GI50 [49]: 53.2 µM
- TGI [49]: > 100 µM
- GI50 [50]: 24.3 µM
- TGI [50]: > 100 µM
- GI50 [51]: 0.0875 µM
- TGI [51]: 58.6 µM
- GI50 [52]: 53.4 µM
- TGI [52]: > 100 µM
- GI50 [53]: 0.79 µM
- TGI [53]: 76.7 µM
- GI50 [54]: 2.25 µM
- TGI [54]: > 100 µM
- GI50 [55]: 2.73 µM
- TGI [55]: > 100 µM

Compound: CC1(COc2ccc3c(c2)ncn3-c2ccc3cccc(N4CCC(N)CC4)c3n2)COC1
- GI50 [1]: 0.808 µM
- TGI [1]: 2.07 µM
- GI50 [2]: 1.67 µM
- TGI [2]: 3.04 µM
- GI50 [3]: 1.28 µM
- TGI [3]: 2.63 µM
- GI50 [56]: 1.15 µM
- TGI [56]: 2.47 µM
- GI50 [4]: 0.37 µM
- TGI [4]: 1.41 µM
- GI50 [5]: 1 µM
- TGI [5]: 2.23 µM
- GI50 [6]: 0.365 µM
- TGI [6]: 1.4 µM
- GI50 [7]: 0.482 µM
- TGI [7]: 1.63 µM
- GI50 [8]: 1.09 µM
- TGI [8]: 2.35 µM
- GI50 [9]: 1.76 µM
- TGI [9]: 3.41 µM
- GI50 [10]: 1.39 µM
- TGI [10]: 2.73 µM
- GI50 [12]: 1.45 µM
- TGI [12]: 2.99 µM
- GI50 [13]: 0.275 µM
- TGI [13]: 0.901 µM
- GI50 [14]: 0.556 µM
- TGI [14]: 1.76 µM
- GI50 [15]: 1.18 µM
- TGI [15]: 2.47 µM
- GI50 [16]: 0.573 µM
- TGI [16]: 1.73 µM
- GI50 [17]: 1.63 µM
- TGI [17]: 3.05 µM
- GI50 [18]: 1.67 µM
- TGI [18]: 3.08 µM
- GI50 [19]: 0.967 µM
- TGI [19]: 2.15 µM
- GI50 [20]: 0.0395 µM
- TGI [20]: 1.45 µM
- GI50 [21]: 0.636 µM
- TGI [21]: 1.89 µM
- GI50 [22]: 1.5 µM
- TGI [22]: 2.83 µM
- GI50 [23]: 1.85 µM
- TGI [23]: 3.25 µM
- GI50 [24]: 1.35 µM
- TGI [24]: 2.65 µM
- GI50 [25]: 1.06 µM
- TGI [25]: 2.5 µM
- GI50 [26]: 1.28 µM
- TGI [26]: 2.55 µM
- GI50 [27]: 0.532 µM
- TGI [27]: 1.6 µM
- GI50 [28]: 0.362 µM
- TGI [28]: 1.17 µM
- GI50 [29]: 1.56 µM
- TGI [29]: 2.99 µM
- GI50 [30]: 0.622 µM
- TGI [30]: 1.88 µM
- GI50 [31]: 1.95 µM
- TGI [31]: 3.49 µM
- GI50 [32]: 0.479 µM
- TGI [32]: 1.6 µM
- GI50 [33]: 0.441 µM
- TGI [33]: 1.63 µM
- GI50 [34]: 1.71 µM
- TGI [34]: 3.39 µM
- GI50 [35]: 1.56 µM
- TGI [35]: 3.01 µM
- GI50 [36]: 2.18 µM
- TGI [36]: 3.64 µM
- GI50 [37]: 1.73 µM
- TGI [37]: 3.41 µM
- GI50 [38]: 1.18 µM
- TGI [38]: 2.43 µM
- GI50 [39]: 1.69 µM
- TGI [39]: 3.16 µM
- GI50 [40]: 0.242 µM
- TGI [40]: 0.708 µM
- GI50 [41]: 1.56 µM
- TGI [41]: 2.91 µM
- GI50 [42]: 1.16 µM
- TGI [42]: 2.44 µM
- GI50 [43]: 1.58 µM
- TGI [43]: 2.94 µM
- GI50 [44]: 0.501 µM
- TGI [44]: 1.93 µM
- GI50 [46]: 1.68 µM
- TGI [46]: 3.05 µM
- GI50 [47]: 1.37 µM
- TGI [47]: 2.66 µM
- GI50 [48]: 1.61 µM
- TGI [48]: 3 µM
- GI50 [57]: 0.25 µM
- TGI [57]: 1.58 µM
- GI50 [49]: 1.98 µM
- TGI [49]: 4.52 µM
- GI50 [50]: 1.53 µM
- TGI [50]: 2.87 µM
- GI50 [58]: 0.185 µM
- TGI [58]: 0.43 µM
- GI50 [51]: 1.1 µM
- TGI [51]: 2.42 µM
- GI50 [52]: 2.07 µM
- TGI [52]: 3.56 µM
- GI50 [53]: 1.71 µM
- TGI [53]: 3.68 µM
- GI50 [54]: 1.34 µM
- TGI [54]: 2.7 µM
- GI50 [59]: 2.71 µM
- TGI [59]: 4.19 µM
- GI50 [60]: 1.46 µM
- TGI [60]: 2.77 µM
- GI50 [55]: 1.55 µM
- TGI [55]: 2.95 µM
